What was measured:
[1] = system: myosatellite cells derived from a rat; experiment: Oil red-O staining of oil droplets / count of adipocyte-like cells after adipogenic differentiation culture; assay type: cell-based
Source text: (§1) The gastrocnemial muscle, the soleus, the anterior tibial muscle, the extensor digitorum longus muscle, and the quadriceps femoris muscle were extracted from the Fischer 344 rat of 10 to 14 weeks old under anesthesia, and minced. The above tissues were subjected to enzymolysis with Protease (Sigma-Aldrich) and subjected to centrifugal treatment to obtain a precipitate. The obtained precipitate was suspended in Dulbecco's Modified Eagle Medium (DMEM) containing 10% horse fetus serum, and seeded on an 8-well slide glass (BD Thermo Science) so that the myosatellite cells are 5×10^4 to 7×10^4 cells/mL.
(§2) Myosatellite cells isolated by F-10 containing 20% cow serum (GIBCO) was cultured for 72 h. Then, the cells were cultured for 72 h. in an adipogenic induction medium (Lonza) containing 0.1% DMSO (Control), 5 μM quercetin, 10 μM quercetin or 50 μM quercetin. Then, the cells were cultured for 72 h. in an adipogenic maintenance medium (Lonza) containing the control, 5 μM quercetin, 10 μM quercetin or 50 μM quercetin.
After the cultured cells were washed in PBS, they were fixed by 10% formalin (Wako Pure Chemical Industries, Ltd.) at room temperature for 10 min. Then, they were reacted with 10% oil red-O solution (Sigma Aldrich) that was dissolved in 2-propanol at room temperature for 30 min.

PPARγ = biological target: T1, PPARγ (Homo sapiens, UniProt P37231); conditions: read-out: IC50 as PPARγ inhibitor; cited from earlier work
T1 sequence (P37231 1-505): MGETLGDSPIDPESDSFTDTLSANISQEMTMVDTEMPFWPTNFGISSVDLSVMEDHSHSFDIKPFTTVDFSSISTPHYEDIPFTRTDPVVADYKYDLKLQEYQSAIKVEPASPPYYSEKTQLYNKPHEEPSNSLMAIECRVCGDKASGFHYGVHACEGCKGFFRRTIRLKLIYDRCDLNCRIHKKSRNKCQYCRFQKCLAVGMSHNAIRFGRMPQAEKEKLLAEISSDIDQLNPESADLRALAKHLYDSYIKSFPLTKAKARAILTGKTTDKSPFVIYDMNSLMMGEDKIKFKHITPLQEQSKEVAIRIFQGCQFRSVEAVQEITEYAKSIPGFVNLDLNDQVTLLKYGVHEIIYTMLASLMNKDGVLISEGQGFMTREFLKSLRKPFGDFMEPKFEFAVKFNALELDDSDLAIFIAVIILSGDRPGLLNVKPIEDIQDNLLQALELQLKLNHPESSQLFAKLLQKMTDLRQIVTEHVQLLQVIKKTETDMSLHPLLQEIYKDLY

[2] = system: myosatellite cells derived from a rat; experiment: Quantification of amount of triglyceride in cells after adipogenic differentiation culture; assay type: cell-based; conditions: 5, 10, 50 μM vs 0 μM
Source text: as §1, §2
After the cells that were subjected to adipogenic differentiation culture were washed with PBS, a PBS that contains 5% Triton-X 100 was added as a cell lysate, and the cell solution was collected, heated and cooled. After the cells were centrifuged, triglyceride and protein in the supernatant were quantified. The LabAssay™ Triglyceride (Wako Pure Chemical Industries, Ltd.) was used for the quantification of triglyceride. The Pierce BCA Protein Assay Kit (Thermo Scientific) was used for the quantification of protein. […] The results were tested using the Dunnett's test, and the value of 5% or lower was determined to be the significant amount (*: p<0.05 vs 0 μM. †: p<0.05 vs 5 μM).

[3] = cited from earlier work
[4] = 5 μM, 72 h adipogenic induction medium then 72 h adipogenic maintenance medium, vs control (0.1% DMSO)
[5] = 10 μM, 72 h induction then 72 h maintenance medium
[6] = 50 μM, 72 h induction then 72 h maintenance medium

Row | SMILES | number of adipocyte-like cells stained by oil red-O ([1]; 1 μM, 72 h induction then 72 h maintenance medium) | number of adipocyte-like cells stained by oil red-O [1, 4] | number of adipocyte-like cells stained by oil red-O [1, 5] | IC50 (PPARγ) [nM] | oil droplets stained by oil red-O [1, 4] | number of oil droplets stained by oil red-O [1, 5] | number of adipocyte-like cells stained by oil red-O [1, 6] | number of oil droplets stained by oil red-O [1, 6] | amount of protein in the cells in the well [2] | amount of triglyceride corrected by the amount of protein [2] | amount of triglyceride in cells after adipogenic differentiation ([2]; Dunnett's test) | solubility in water [3]
1 | O=C(Nc1ccccc1)c1cc([N+](=O)[O-])ccc1Cl [GW9662, reference compound] | did not decrease | did not decrease | did not decrease | 3.3 | – | – | – | – | – | – | – | –
2 | O=c1c(O)c(-c2ccc(O)c(O)c2)oc2cc(O)cc(O)c12 [quercetin] | – | no significant decrease | decreased | – | the same level of oil droplets as the control | decreased in a concentration dependent manner | decreased | decreased in a concentration dependent manner | did not change | decreased in a quercetin concentration dependent manner | decreased in a quercetin-concentration dependent manner | insoluble to water

— US20180104269A1, “COMPOSITION FOR SUPPRESSING MUSCULAR FATTY CHANGE” (SUNTORY HOLDINGS LIMITED, priority 2015, published 2018)
